Like-named read-outs stand apart in the source and are kept apart here.
Key:
Format in all cases: cell-based
[1] = biological target: T1, α7^L131G,Q139L,Y217F-5HT3 S172A (Homo sapiens, UniProt P36544, L131G/M226I/Q139L/S172A/T225I/Y217F); test: EC50 dose response, PSAM4-5HT3 with additional mutations; conditions: additional mutation S172A; read-out: EC50s (SEM) for additional mutations of α7^L131G, Q139L, Y217F -5HT3
T1 construct: expressed in transfected cells; host or cells: HEK 293

[2] = biological target: T2, α7^L131G,Q139L,Y217F-5HT3 H163T, S172V (Homo sapiens, UniProt P36544, H163T/L131G/M226I/Q139L/S172V/T225I/Y217F); test: as above; conditions: read-out: EC50s (SEM) for additional mutations of α7^L131G, Q139L, Y217F -5HT3
T2 construct: expressed in transfected cells; host or cells: HEK 293
T2 sequence (P36544 with tags, fused parts or gaps L131G/Q139L/H163T/S172V/Y217F/T225I/M226I limits assumed): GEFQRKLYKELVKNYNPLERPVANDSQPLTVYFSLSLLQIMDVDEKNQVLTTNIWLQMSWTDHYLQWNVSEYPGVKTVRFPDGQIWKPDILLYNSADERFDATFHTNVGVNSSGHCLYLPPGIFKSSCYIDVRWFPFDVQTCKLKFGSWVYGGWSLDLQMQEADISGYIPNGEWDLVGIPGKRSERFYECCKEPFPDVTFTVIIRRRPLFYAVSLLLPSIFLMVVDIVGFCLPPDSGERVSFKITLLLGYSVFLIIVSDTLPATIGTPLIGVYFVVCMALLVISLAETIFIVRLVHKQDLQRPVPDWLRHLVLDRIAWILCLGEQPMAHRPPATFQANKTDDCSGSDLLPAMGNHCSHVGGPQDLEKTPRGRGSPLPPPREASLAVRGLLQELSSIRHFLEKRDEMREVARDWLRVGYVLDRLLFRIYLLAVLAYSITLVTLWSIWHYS

[3] = biological target: T3, α7^L131G,Q139L,Y217F-5HT3 H163S (Homo sapiens, UniProt P36544, H163S/L131G/M226I/Q139L/T225I/Y217F); test: as above; conditions: additional mutation H163S; read-out: EC50s (SEM) for additional mutations of α7^L131G, Q139L, Y217F -5HT3
T3 construct: expressed in transfected cells; host or cells: HEK 293
T3 sequence (P36544 with tags, fused parts or gaps L131G/Q139L/H163S/Y217F/T225I/M226I limits assumed): as the sequence (P36544 with tags, fused parts or gaps L131G/Q139L/H163T/S172V/Y217F/T225I/M226I limits assumed) above, with T141S, V150S counted along it

[4] = biological target: T4, α7^L131G,Q139L,Y217F-5HT3 H163T (Homo sapiens, UniProt P36544, H163T/L131G/M226I/Q139L/T225I/Y217F); test: as above; conditions: additional mutation H163T; read-out: EC50s (SEM) for additional mutations of α7^L131G, Q139L, Y217F -5HT3
T4 construct: expressed in transfected cells; host or cells: HEK 293
T4 sequence (P36544 with tags, fused parts or gaps L131G/Q139L/H163T/Y217F/T225I/M226I limits assumed): as the sequence (P36544 with tags, fused parts or gaps L131G/Q139L/H163T/S172V/Y217F/T225I/M226I limits assumed) above, with V150S counted along it

[5] = biological target: T5, α7-5HT3 L131G, Q139L, Y217H (Homo sapiens, UniProt P36544, L131G/M226I/Q139L/T225I/Y217H); test: EC50 dose response, α7-5HT3 mutant; conditions: read-out: EC50s (SEM) for additional mutations of α7^L131G, Q139L, Y217F -5HT3
T5 construct: expressed in transfected cells; host or cells: HEK 293
T5 sequence (P36544 with tags, fused parts or gaps L131G/Q139L/Y217H/T225I/M226I limits assumed): as the sequence (P36544 with tags, fused parts or gaps L131G/Q139L/H163T/S172V/Y217F/T225I/M226I limits assumed) above, with T141H, V150S, F195H counted along it

[6] = biological target: T6, α7^L131G,Q139L,Y217F-5HT3 H163R (Homo sapiens, UniProt P36544, H163R/L131G/M226I/Q139L/T225I/Y217F); test: EC50 dose response, PSAM4-5HT3 with additional mutations; conditions: additional mutation H163R; read-out: EC50s (SEM) for additional mutations of α7^L131G, Q139L, Y217F -5HT3
T6 construct: expressed in transfected cells; host or cells: HEK 293
T6 sequence (P36544 with tags, fused parts or gaps L131G/Q139L/H163R/Y217F/T225I/M226I limits assumed): as the sequence (P36544 with tags, fused parts or gaps L131G/Q139L/H163T/S172V/Y217F/T225I/M226I limits assumed) above, with T141R, V150S counted along it

[7] = biological target: T7, α7^L131G,Q139L,Y217F-5HT3 H163K (Homo sapiens, UniProt P36544, H163K/L131G/M226I/Q139L/T225I/Y217F); test: as above; conditions: additional mutation H163K; read-out: EC50s (SEM) for additional mutations of α7^L131G, Q139L, Y217F -5HT3
T7 construct: expressed in transfected cells; host or cells: HEK 293
T7 sequence (P36544 with tags, fused parts or gaps L131G/Q139L/H163K/Y217F/T225I/M226I limits assumed): as the sequence (P36544 with tags, fused parts or gaps L131G/Q139L/H163T/S172V/Y217F/T225I/M226I limits assumed) above, with T141K, V150S counted along it

[8] = biological target: T8, α7^L131G,Q139L,Y217F-5HT3 H163T, S172A (Homo sapiens, UniProt P36544, H163T/L131G/M226I/Q139L/S172A/T225I/Y217F); test: as above; conditions: read-out: EC50s (SEM) for additional mutations of α7^L131G, Q139L, Y217F -5HT3
T8 construct: expressed in transfected cells; host or cells: HEK 293

[9] = biological target: T9, α7^L131G,Q139L,Y217F-5HT3 H163N (Homo sapiens, UniProt P36544, H163N/L131G/M226I/Q139L/T225I/Y217F); test: as above; conditions: additional mutation H163N; read-out: EC50s (SEM) for additional mutations of α7^L131G, Q139L, Y217F -5HT3
T9 construct: expressed in transfected cells; host or cells: HEK 293

[10] = biological target: T10, α7^L131G,Q139L,Y217F-5HT3 S172I (Homo sapiens, UniProt P36544, L131G/M226I/Q139L/S172I/T225I/Y217F); test: as above; conditions: additional mutation S172I; read-out: EC50s (SEM) for additional mutations of α7^L131G, Q139L, Y217F -5HT3
T10 construct: expressed in transfected cells; host or cells: HEK 293

[11] = biological target: T11, α7-5HT3 L131G, Q139L, Y217A (Homo sapiens, UniProt P36544, L131G/M226I/Q139L/T225I/Y217A); test: EC50 dose response, α7-5HT3 mutant; conditions: read-out: EC50s (SEM) for additional mutations of α7^L131G, Q139L, Y217F -5HT3
T11 construct: expressed in transfected cells; host or cells: HEK 293
T11 sequence (P36544 with tags, fused parts or gaps L131G/Q139L/Y217A/T225I/M226I limits assumed): as the sequence (P36544 with tags, fused parts or gaps L131G/Q139L/H163T/S172V/Y217F/T225I/M226I limits assumed) above, with T141H, V150S, F195A counted along it

[12] = biological target: T12, α7^L131G,Q139L,Y217F-5HT3 H163D (Homo sapiens, UniProt P36544, H163D/L131G/M226I/Q139L/T225I/Y217F); test: EC50 dose response, PSAM4-5HT3 with additional mutations; conditions: additional mutation H163D; read-out: EC50s (SEM) for additional mutations of α7^L131G, Q139L, Y217F -5HT3
T12 construct: expressed in transfected cells; host or cells: HEK 293

[13] = biological target: T13, α7-5HT3 L131G, Q139L, Y217V (Homo sapiens, UniProt P36544, L131G/M226I/Q139L/T225I/Y217V); test: EC50 dose response, α7-5HT3 mutant; conditions: read-out: EC50s (SEM) for additional mutations of α7^L131G, Q139L, Y217F -5HT3
T13 construct: 5HT3 ion pore domain (fusion partner); expressed in transfected cells; HEK 293 is named only for the electrophysiology

[14] = biological target: T14, α7^L131G,Q139L,Y217F-5HT3 H163V (Homo sapiens, UniProt P36544, H163V/L131G/M226I/Q139L/T225I/Y217F); test: EC50 dose response, PSAM4-5HT3 with additional mutations; conditions: additional mutation H163V; read-out: EC50s (SEM) for additional mutations of α7^L131G, Q139L, Y217F -5HT3
T14 construct: expressed in transfected cells; host or cells: HEK 293

[15] = biological target: T15, PSAM4-5HT3 (α7-5HT3^L131G,Q139L,Y217F) (Homo sapiens, UniProt P36544, L131G/M226I/Q139L/T225I/Y217F); test: EC50 dose response of LGIC ligands on PSAM4-5HT3; conditions: read-out: EC50s (SEM) for additional mutations of α7^L131G, Q139L, Y217F -5HT3
T15 construct: expressed in transfected cells; host or cells: HEK 293
T15 sequence (P36544 with tags, fused parts or gaps L131G/Q139L/Y217F/T225I/M226I limits assumed): as the sequence (P36544 with tags, fused parts or gaps L131G/Q139L/H163T/S172V/Y217F/T225I/M226I limits assumed) above, with T141H, V150S counted along it

[16] = biological target: T16, α7-5HT3 L131G, Q139L, W171Y (Homo sapiens, UniProt P36544, L131G/M226I/Q139L/T225I/W171Y); test: EC50 dose response, α7-5HT3 mutant; conditions: read-out: EC50s (SEM) for additional mutations of α7^L131G, Q139L, Y217F -5HT3
T16 construct: expressed in transfected cells; host or cells: HEK 293

[17] = biological target: T17, α7-5HT3 L131G, Q139L, W171F (Homo sapiens, UniProt P36544, L131G/M226I/Q139L/T225I/W171F); test: EC50 dose response, α7-5HT3 mutant; conditions: read-out: EC50s (SEM) for additional mutations of α7^L131G, Q139L, Y217F -5HT3
T17 construct: expressed in transfected cells; host or cells: HEK 293
T17 sequence (P36544 with tags, fused parts or gaps L131G/Q139L/W171F/T225I/M226I limits assumed): as the sequence (P36544 with tags, fused parts or gaps L131G/Q139L/H163T/S172V/Y217F/T225I/M226I limits assumed) above, with T141H, W149F, V150S, F195Y counted along it

[18] = biological target: T18, α7^L131G,Q139L,Y217F-5HT3 V154I, R155Y, W156N, S172V (Homo sapiens, UniProt P36544, L131G/M226I/Q139L/R155Y/S172V/T225I/V154I/W156N/Y217F); test: EC50 dose response, PSAM4-5HT3 with additional mutations; conditions: read-out: EC50s (SEM) for additional mutations of α7^L131G, Q139L, Y217F -5HT3
T18 construct: expressed in transfected cells; host or cells: HEK 293
T18 sequence (P36544 with tags, fused parts or gaps L131G/Q139L/V154I/R155Y/W156N/S172V/Y217F/T225I/M226I limits assumed): as the sequence (P36544 with tags, fused parts or gaps L131G/Q139L/H163T/S172V/Y217F/T225I/M226I limits assumed) above, with V132I, R133Y, W134N, T141H counted along it

[19] = biological target: T19, α7^L131G,Q139L,Y217F-5HT3 W156N (Homo sapiens, UniProt P36544, L131G/M226I/Q139L/T225I/W156N/Y217F); test: cell-based; conditions: additional mutation W156N; read-out: EC50s (SEM) for additional mutations of α7^L131G, Q139L, Y217F -5HT3
T19 construct: expressed in transfected cells; host or cells: HEK 293

[20] = biological target: T20, α7^L131G,Q139L,Y217F-5HT3 W156N, H163T (Homo sapiens, UniProt P36544, H163T/L131G/M226I/Q139L/T225I/W156N/Y217F); test: EC50 dose response, PSAM4-5HT3 with additional mutations; conditions: read-out: EC50s (SEM) for additional mutations of α7^L131G, Q139L, Y217F -5HT3
T20 construct: expressed in transfected cells; host or cells: HEK 293

[21] = biological target: T21, α7^L131G,Q139L,Y217F-5HT3 V154L, R155Y, W156Q (Homo sapiens, UniProt P36544, L131G/M226I/Q139L/R155Y/T225I/V154L/W156Q/Y217F); test: as above; conditions: read-out: EC50s (SEM) for additional mutations of α7^L131G, Q139L, Y217F -5HT3
T21 construct: expressed in transfected cells; host or cells: HEK 293
T21 sequence (P36544 with tags, fused parts or gaps L131G/Q139L/V154L/R155Y/W156Q/Y217F/T225I/M226I limits assumed): as the sequence (P36544 with tags, fused parts or gaps L131G/Q139L/H163T/S172V/Y217F/T225I/M226I limits assumed) above, with V132L, R133Y, W134Q, T141H, V150S counted along it

[22] = biological target: T22, α7-5HT3 L131G, Q139L, Y217N (Homo sapiens, UniProt P36544, L131G/M226I/Q139L/T225I/Y217N); test: EC50 dose response, α7-5HT3 mutant; conditions: read-out: EC50s (SEM) for additional mutations of α7^L131G, Q139L, Y217F -5HT3
T22 construct: 5HT3 ion pore domain (fusion partner); expressed in transfected cells

[23] = biological target: T23, α7^L131G,Q139L,Y217F-5HT3 S172V (Homo sapiens, UniProt P36544, L131G/M226I/Q139L/S172V/T225I/Y217F); test: EC50 dose response, PSAM4-5HT3 with additional mutations; conditions: additional mutation S172V; read-out: EC50s (SEM) for additional mutations of α7^L131G, Q139L, Y217F -5HT3
T23 construct: expressed in transfected cells; host or cells: HEK 293

[24] = biological target: T24, α7^L131G,Q139L,Y217F-5HT3 V154I, R155Y, W156N, S172A (Homo sapiens, UniProt P36544, L131G/M226I/Q139L/R155Y/S172A/T225I/V154I/W156N/Y217F); test: as above; conditions: read-out: EC50s (SEM) for additional mutations of α7^L131G, Q139L, Y217F -5HT3
T24 construct: expressed in transfected cells; host or cells: HEK 293

[25] = biological target: T25, α7^L131G,Q139L,Y217F-5HT3 H163F (Homo sapiens, UniProt P36544, H163F/L131G/M226I/Q139L/T225I/Y217F); test: as above; conditions: additional mutation H163F; read-out: EC50s (SEM) for additional mutations of α7^L131G, Q139L, Y217F -5HT3
T25 construct: expressed in transfected cells; host or cells: HEK 293

[26] = biological target: T26, α7^L131G,Q139L,Y217F-5HT3 H163A (Homo sapiens, UniProt P36544, H163A/L131G/M226I/Q139L/T225I/Y217F); test: as above; conditions: additional mutation H163A; read-out: EC50s (SEM) for additional mutations of α7^L131G, Q139L, Y217F -5HT3
T26 construct: expressed in transfected cells; host or cells: HEK 293

[27] = biological target: T27, α7^L131G,Q139L,Y217F-5HT3 V154I, R155Y, W156N (Homo sapiens, UniProt P36544, L131G/M226I/Q139L/R155Y/T225I/V154I/W156N/Y217F); test: as above; conditions: read-out: EC50s (SEM) for additional mutations of α7^L131G, Q139L, Y217F -5HT3
T27 construct: expressed in transfected cells; host or cells: HEK 293

[28] = PSAM4-5HT3 (no additional mutation)
[29] = line L131G, Q139L, Y217F (same values as PSAM4-5HT3 line)

Row | SMILES | EC50 [1] [nM] | EC50 [2] [nM] | EC50 [3] [nM] | EC50 [4] [nM] | EC50 [5] [nM] | EC50 [6] [nM] | EC50 [7] [nM] | EC50 [8] [nM] | EC50 [9] [nM] | EC50 [10] [nM] | EC50 [11] [nM] | EC50 [12] [nM] | EC50 [13] [nM] | EC50 [14] [nM] | EC50 [15, 28] [nM] | EC50 [15, 29] [nM] | EC50 [16] [nM] | EC50 [17] [nM] | EC50 [18] [nM] | EC50 [19] [nM] | other results
1 | COc1cnc2cc3c(cc2n1)C1CNCC3C1 (stereo not shown) [uPSEM 793] | 4 | 1.5 | 0.4 | 1.4 | 0.8 | 1.5 | 0.5 | 2.5 | 2.1 | 10 | 1.2 | 0.3 | 2.4 | 1.5 | 1.7 | 1.7 | > 100 | > 100 | 7.7 | 0.7 | EC50 [20]: 2 nM; EC50 [21]: 0.7 nM; EC50 [22]: > 100 nM; EC50 [23]: 2.7 nM; EC50 [24]: 4.1 nM; EC50 [25]: 0.7 nM; EC50 [26]: 0.5 nM
2 | CCCOc1cnc2cc3c(cc2n1)C1CNCC3C1 (stereo not shown) [uPSEM 817] | 7 | 6.3 | 8.1 | 12 | 16 | 5.5 | 10 | 7.8 | 9.1 | 18 | 9.2 | 2.5 | 24 | 9 | 4.1 | 4.1 | > 100 | > 100 | 13 | 15 | EC50 [27]: 13 nM; EC50 [20]: 13 nM; EC50 [21]: 17 nM; EC50 [22]: > 100 nM; EC50 [23]: 6 nM; EC50 [24]: 12 nM; EC50 [25]: 8.2 nM; EC50 [26]: 53 nM

Reference: patent US20250145687A1, “MODIFIED LIGAND-GATED ION CHANNELS AND METHODS OF USE” (Howard Hughes Medical Institute, priority 2022, published 2025)
